# Like-named read-outs stand apart in the source and are kept apart here.
# Key:
# SAT1 [1] = molecular target: SAT1 (Homo sapiens, UniProt P21673)
# Protocol: FIG. 17C SAT1 induction was confirmed by Western blot analysis of the protein sample. (mean=+SD, n=3).
# Next, SAT1 activity was assessed in U251 cells via production of acetylated-amantadine after treatment with the SAT1 substrate amantadine, or the production of acetylated-rimantadine after treatment with the SAT1 substrate rimantadine.
# BBB = experiment: Bidirectional BBB permeability in the BBB microfluidic model
# Protocol: Permeability coefficients are the mean±SD of 3 microfluidic units.
# Finally, the bidirectional BBB permeability of amantadine and rimantadine, as well as their metabolites, was evaluated in the previously described model.
# SAT1 [2] = experiment: SAT1 induction in U251 cells (mRNA and Western blot); format: cell-based, human; settings: 10 μM, 24 and 48 hours
# From the text: SAT1 expression was next evaluated in U251 cells.
# NAT1 = NAT1 gene and protein expression in U251 cells; format: cell-based, human; settings: 10 μM, 24 h and 48 h
# NAT2 = NAT2 gene and protein expression in U251 cells; format: cell-based, human; settings: 10 μM, 24 h and 48 h
# U251 glioblastoma cells = experiment: Cell viability/proliferation MTT assay, U251; format: cell-based, human; settings: combined with SAT1 knockdown, DOX 0.1 μM, TOPO 0.2 μM
# Protocol: (§1) Cells were transfected in T-25 flask as discussed above. Forty-eight hours after transfection, the cells were seeded in 96-well plates (5000 cells/well). After 24-hours, the cells were exposed to no treatment or either 10 Gy radiation (RS-2000, Rad Source Technologies, Inc., Buford, GA, USA) or anticancer drugs carmustine (i.e., BCNU™ or BiCNU™) (100 μM), Doxorubicin (0.1 μM) and Topotecan (0.2 μM). After 24 hours, the media and treatments were removed and replaced with fresh media and cultured for 48 hours. The percentage of viable cells was determined using MTT assay (Norouzi et al, 2020).
# macrophage cells (ANA-1) = experiment: Cell viability/proliferation MTT assay, ANA-1; format: cell-based, murine; settings: 0.1 μM
# Protocol: as §1
# Chain of SAT1 (Homo sapiens, UniProt P21673) (P21673 whole entry): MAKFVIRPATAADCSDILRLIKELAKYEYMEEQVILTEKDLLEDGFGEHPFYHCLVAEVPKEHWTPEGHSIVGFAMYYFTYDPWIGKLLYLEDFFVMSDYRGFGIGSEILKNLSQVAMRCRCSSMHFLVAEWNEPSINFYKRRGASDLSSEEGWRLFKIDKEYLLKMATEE
structure (smiles),measurement,setting,value
"CC(=O)NC12CC3CC(CC(C3)C1)C2 [Ac-amantadine, acetylated-amantadine]",earliest detection after induction,SAT1 [1],5 min
same,"earliest detection after induction, in some cases",SAT1 [1],3 min
same,BBB permeability,BBB; from the brain to blood,able to cross the BBB from the brain to blood efficiently
"CC(=O)NC(C)C12CC3CC(CC(C3)C1)C2 (stereo not drawn) [Ac-rimantadine, acetylated-rimantadine]",earliest detection after induction,SAT1 [1],5 min
same,"earliest detection after induction, in some cases",SAT1 [1],3 min
same,BBB permeability,BBB,able to cross the BBB from the brain to blood efficiently
"CCNCCCNCCCNCCCNCC [DENSPM, N(1),N(11)-diethylnorspermine]",SAT1 gene and protein expression,SAT1 [2],enhanced
same,NAT1 gene and protein expression levels,NAT1,did not significantly change
same,NAT2 gene and protein expression levels,NAT2,did not significantly change
"COc1cccc2c1C(=O)c1c(O)c3c(c(O)c1C2=O)C[C@@](O)(C(=O)CO)C[C@@H]3O[C@H]1C[C@H](N)[C@H](O)[C@H](C)O1 [DOX, Doxorubicin]",cell viabilities/proliferation,U251 glioblastoma cells,lowest
same,sensitivity of cells to treatment,macrophage cells (ANA-1),particularly sensitive
"CC[C@@]1(O)C(=O)OCc2c1cc1n(c2=O)Cc2cc3c(CN(C)C)c(O)ccc3nc2-1 [TOPO, Topotecan]",cell viabilities/proliferation,U251 glioblastoma cells,lowest
NC12CC3CC(CC(C3)C1)C2 [amantadine],BBB permeability,BBB; from blood to the brain,able to cross
CC(N)C12CC3CC(CC(C3)C1)C2 (stereo not drawn) [rimantadine],BBB permeability,BBB,able to cross
same,BBB permeability relative to amantadine,BBB,slightly more permeable
